Where “and” joins values, the source holds several entries; their conditions need not be identical. Identical values can stand only once. Inconclusive results and toxic doses are left out.
Tested on: BDF1 mice, P388 leukemia ip, median survival T/C
Assay: NCI In Vivo Anticancer Drug Screen. Data for tumor model P388 Leukemia (intraperitoneal) in B6D2F1 (BDF1) mice
Settings: endpoint: median survival time, higher = longer survival
Summary of the method: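 Each value expresses how treatment altered survival: treated-mouse outcome over vehicle-mouse outcome, both groups bearing the transplanted tumour.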

[1] = dose: 100.0 mg/kg/injection, schedule: Q04DX003 (ip), vehicle: other
[2] = dose: 200.0 mg/kg/injection, schedule: Q04DX003 (ip), vehicle: other
[3] = dose: 400.0 mg/kg/injection, schedule: Q04DX003 (ip), vehicle: other
[4] = dose: 100.0 mg/kg/injection, schedule: Q04DX003 (ip), vehicle: saline
[5] = dose: 100.0 mg/kg/injection, schedule: Q01DX009 (ip), vehicle: saline with Tween-80
[6] = dose: 100.0 mg/kg/injection, schedule: Q04DX003 (ip), vehicle: saline with Tween-80
[7] = dose: 6.25 mg/kg/injection, schedule: Q01DX009 (ip), vehicle: saline
[8] = dose: 12.5 mg/kg/injection, schedule: Q01DX009 (ip), vehicle: saline
[9] = dose: 25.0 mg/kg/injection, schedule: Q01DX009 (ip), vehicle: saline
[10] = dose: 50.0 mg/kg/injection, schedule: Q04DX002 (ip), vehicle: saline with Tween-80

## O=NN(CCCl)C(=O)N[C@H]1CCCC[C@H]1Cl
dose: 1.0 mg/kg/injection, schedule: Q01DX009 (ip), vehicle: Klucel (hydroxypropylcellulose) (HPC)
  T/C: 104 % of control
dose: 1.0 mg/kg/injection, schedule: Q04DX003 (ip), vehicle: Klucel (hydroxypropylcellulose) (HPC)
  T/C: 104 % of control
dose: 1.5 mg/kg/injection, schedule: Q01DX009 (ip), vehicle: Klucel (hydroxypropylcellulose) (HPC)
  T/C: 116 % of control
dose: 2.0 mg/kg/injection, schedule: Q04DX003 (ip), vehicle: Klucel (hydroxypropylcellulose) (HPC)
  T/C: 104 % of control
dose: 2.3 mg/kg/injection, schedule: Q01DX009 (ip), vehicle: Klucel (hydroxypropylcellulose) (HPC)
  T/C: 104 % of control
dose: 4.0 mg/kg/injection, schedule: Q04DX003 (ip), vehicle: Klucel (hydroxypropylcellulose) (HPC)
  T/C: 100 % of control
dose: 5.5 mg/kg/injection, schedule: Q01DX009 (ip), vehicle: Klucel (hydroxypropylcellulose) (HPC)
  T/C: 153 % of control and 194 % of control
dose: 8.5 mg/kg/injection, schedule: Q01DX009 (ip), vehicle: Klucel (hydroxypropylcellulose) (HPC)
  T/C: 159 % of control and 169 % of control and 216 % of control
dose: 8.5 mg/kg/injection, schedule: Q04DX003 (ip), vehicle: Klucel (hydroxypropylcellulose) (HPC)
  T/C: 165 % of control
dose: 13.0 mg/kg/injection, schedule: Q01DX009 (ip), vehicle: Klucel (hydroxypropylcellulose) (HPC)
  T/C: 305 % of control and 192 % of control
dose: 13.0 mg/kg/injection, schedule: Q04DX003 (ip), vehicle: Klucel (hydroxypropylcellulose) (HPC)
  T/C: 235 % of control
dose: 20.0 mg/kg/injection, schedule: Q01DX009 (ip), vehicle: Klucel (hydroxypropylcellulose) (HPC)
  T/C: 250 % of control and 333 % of control and 200 % of control
dose: 20.0 mg/kg/injection, schedule: Q04DX003 (ip), vehicle: Klucel (hydroxypropylcellulose) (HPC)
  T/C: 270 % of control and 300 % of control
dose: 30.0 mg/kg/injection, schedule: Q01DX009 (ip), vehicle: Klucel (hydroxypropylcellulose) (HPC)
  T/C: 120 % of control
dose: 30.0 mg/kg/injection, schedule: Q04DX003 (ip), vehicle: Klucel (hydroxypropylcellulose) (HPC)
  T/C: 300 % of control
dose: 44.0 mg/kg/injection, schedule: Q01DX009 (ip), vehicle: Klucel (hydroxypropylcellulose) (HPC)
  T/C: 104 % of control
dose: 44.0 mg/kg/injection, schedule: Q04DX003 (ip), vehicle: Klucel (hydroxypropylcellulose) (HPC)
  T/C: 300 % of control
dose: 67.0 mg/kg/injection, schedule: Q04DX003 (ip), vehicle: Klucel (hydroxypropylcellulose) (HPC)
  T/C: 300 % of control

## Cc1cc(C)c(C(=O)CC(=O)c2cccnc2)c(C)c1
dose: 100.0 mg/kg/injection, schedule: Q01DX009 (ip), vehicle: other
  T/C: 115 % of control
[1]
  T/C: 100 % of control
dose: 200.0 mg/kg/injection, schedule: Q01DX009 (ip), vehicle: other
  T/C: 120 % of control
[2]
  T/C: 100 % of control
dose: 400.0 mg/kg/injection, schedule: Q01DX009 (ip), vehicle: other
  T/C: 110 % of control
[3]
  T/C: 100 % of control

## O=C(NNc1ccccc1)OCc1ccccc1
dose: 12.5 mg/kg/injection, schedule: Q01DX009 (ip), vehicle: Klucel (hydroxypropylcellulose) (HPC)
  T/C: 100 % of control
dose: 25.0 mg/kg/injection, schedule: Q01DX009 (ip), vehicle: Klucel (hydroxypropylcellulose) (HPC)
  T/C: 115 % of control
dose: 50.0 mg/kg/injection, schedule: Q01DX009 (ip), vehicle: Klucel (hydroxypropylcellulose) (HPC)
  T/C: 110 % of control
dose: 75.0 mg/kg/injection, schedule: Q04DX003 (ip), vehicle: Klucel (hydroxypropylcellulose) (HPC)
  T/C: 95 % of control
dose: 150.0 mg/kg/injection, schedule: Q04DX003 (ip), vehicle: Klucel (hydroxypropylcellulose) (HPC)
  T/C: 100 % of control
dose: 300.0 mg/kg/injection, schedule: Q04DX003 (ip), vehicle: Klucel (hydroxypropylcellulose) (HPC)
  T/C: 90 % of control

## COC(=O)C(C)CN1CC(C)OC(C)C1 (configuration not stated)
[4]
  T/C: 113 % of control
dose: 200.0 mg/kg/injection, schedule: Q04DX003 (ip), vehicle: saline
  T/C: 100 % of control
dose: 400.0 mg/kg/injection, schedule: Q04DX003 (ip), vehicle: saline
  T/C: 100 % of control

## CC(C)=CCC/C(C)=C\CCl
dose: 25.0 mg/kg/injection, schedule: Q01DX009 (ip), vehicle: saline with Tween-80
  T/C: 105 % of control
dose: 37.5 mg/kg/injection, schedule: Q01DX009 (ip), vehicle: saline with Tween-80
  T/C: 99 % of control
dose: 50.0 mg/kg/injection, schedule: Q01DX009 (ip), vehicle: saline with Tween-80
  T/C: 121 % of control
dose: 50.0 mg/kg/injection, schedule: Q04DX003 (ip), vehicle: saline with Tween-80
  T/C: 107 % of control
dose: 75.0 mg/kg/injection, schedule: Q01DX009 (ip), vehicle: saline with Tween-80
  T/C: 122 % of control
[5]
  T/C: 105 % of control
[6]
  T/C: 111 % of control

## O=C(O)C(Cc1ccccc1)N=Cc1c(O)ccc2ccccc12 (configuration not stated)
[6]
  T/C: 105 % of control
dose: 200.0 mg/kg/injection, schedule: Q04DX003 (ip), vehicle: saline with Tween-80
  T/C: 114 % of control
dose: 400.0 mg/kg/injection, schedule: Q04DX003 (ip), vehicle: saline with Tween-80
  T/C: 89 % of control

## CCCCCCCCCCCCCCCCSCCCCCCCCCCCSCCCCCCCCCCCCCCCC
dose: 25.0 mg/kg/injection, schedule: Q01DX001 (ip), vehicle: saline sonified
  T/C: 90 % of control
dose: 50.0 mg/kg/injection, schedule: Q01DX001 (ip), vehicle: saline sonified
  T/C: 90 % of control

## CCOC(=O)C(c1ccccc1)c1ccccc1
[1]
  T/C: 100 % of control
[2]
  T/C: 95 % of control
[3]
  T/C: 90 % of control

## NC1(C(=O)O)CCCC1
dose: 20.0 mg/kg/injection, schedule: Q01DX010 (ip), vehicle: water
  T/C: 100 % of control
dose: 22.5 mg/kg/injection, schedule: Q01DX010 (ip), vehicle: saline
  T/C: 100 % of control and 120 % of control
dose: 25.0 mg/kg/injection, schedule: Q01DX009 (ip), vehicle: carboxymethylcellulose (CMC)
  T/C: 93 % of control
dose: 45.0 mg/kg/injection, schedule: Q01DX010 (ip), vehicle: saline
  T/C: 110 % of control
dose: 50.0 mg/kg/injection, schedule: Q01DX009 (ip), vehicle: carboxymethylcellulose (CMC)
  T/C: 92 % of control
dose: 80.0 mg/kg/injection, schedule: Q01DX010 (ip), vehicle: water
  T/C: 110 % of control
dose: 90.0 mg/kg/injection, schedule: Q01DX010 (ip), vehicle: saline
  T/C: 185 % of control
[5]
  T/C: 100 % of control
dose: 200.0 mg/kg/injection, schedule: Q01DX009 (ip), vehicle: carboxymethylcellulose (CMC)
  T/C: 87 % of control
dose: 200.0 mg/kg/injection, schedule: Q01DX009 (ip), vehicle: saline with Tween-80
  T/C: 90 % of control

## C=CC[Se]c1nc(N)nc2c1ncn2C1OC(CO)C(O)C1O (configuration not stated)
[7]
  T/C: 105 % of control
dose: 6.25 mg/kg/injection, schedule: Q04DX003 (ip), vehicle: saline
  T/C: 100 % of control
[8]
  T/C: 111 % of control
dose: 12.5 mg/kg/injection, schedule: Q04DX003 (ip), vehicle: saline
  T/C: 100 % of control
[9]
  T/C: 100 % of control
dose: 25.0 mg/kg/injection, schedule: Q04DX003 (ip), vehicle: saline
  T/C: 95 % of control and 104 % of control
dose: 50.0 mg/kg/injection, schedule: Q04DX003 (ip), vehicle: saline
  T/C: 90 % of control
[4]
  T/C: 90 % of control

## CCCC1CCC(=C2C(=O)CCC2=O)O1 (configuration not stated)
dose: 3.13 mg/kg/injection, schedule: Q01DX009 (ip), vehicle: saline
  T/C: 119 % of control
[7]
  T/C: 119 % of control
[8]
  T/C: 119 % of control
[9]
  T/C: 119 % of control
dose: 25.0 mg/kg/injection, schedule: Q04DX002 (ip), vehicle: saline with Tween-80
  T/C: 113 % of control
dose: 25.0 mg/kg/injection, schedule: Q04DX002 (ip), vehicle: saline
  T/C: 107 % of control
[10]
  T/C: 103 % of control
dose: 50.0 mg/kg/injection, schedule: Q04DX002 (ip), vehicle: saline
  T/C: 100 % of control
dose: 100.0 mg/kg/injection, schedule: Q04DX002 (ip), vehicle: saline with Tween-80
  T/C: 120 % of control
dose: 200.0 mg/kg/injection, schedule: Q04DX002 (ip), vehicle: saline
  T/C: 105 % of control

## CC(Cc1cccs1)N=Cc1cc(Br)ccc1O (configuration not stated)
dose: 100.0 mg/kg/injection, schedule: Q01DX001 (ip), vehicle: saline with Tween-80
  T/C: 100 % of control
dose: 200.0 mg/kg/injection, schedule: Q01DX001 (ip), vehicle: saline with Tween-80
  T/C: 111 % of control
dose: 400.0 mg/kg/injection, schedule: Q01DX001 (ip), vehicle: saline with Tween-80
  T/C: 109 % of control

## O=C(Nc1nncs1)c1ccncc1
[10]
  T/C: 90 % of control
dose: 200.0 mg/kg/injection, schedule: Q04DX002 (ip), vehicle: saline with Tween-80
  T/C: 152 % of control
dose: 400.0 mg/kg/injection, schedule: Q04DX002 (ip), vehicle: saline with Tween-80
  T/C: 100 % of control

Source: PubChem BioAssay AID328 (DTP/NCI, 2004)
